SMILES strings stand for the structures.

Assay [1] has as its target HBV core protein (UniProt P03146). In kind it is biochemical. As to conditions: read-out: Assembly Activity (IC50); BODIPY-FL labelled core protein, assembly started with NaCl, read after 6 min. In outline: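 Fluorescence-quenching assembly assay using E. coli-expressed core protein 1–149 plus Cys150, labelled with BODIPY-FL maleimide, at 1.0–2.0 μM in 50 mM HEPES pH 7.5, 0.5% DMSO. Assembly started with NaCl to […]; fluorescence (ex 477/em 525 nm) read after 6 min. EC50 by non-linear regression, 8-point 0.5-log dilutions.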

Assay [2] concerns HBV. The assay is described as follows: Determination of HBV DNA from the supernatants of HepAD38 cells (anti-HBV activity). The format is cell-based, hepatitis B virus. As to conditions: Hepatitis B virus, 144 h; HBV DNA in HepAD38 supernatant at day 6; read-out: Cell Activity (EC50). The essentials: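 HepAD38 cells (60,000/well) were treated with half-log compound dilutions in tetracycline-free medium to induce HBV production. On day 6, HBV DNA was purified from filtered supernatant and quantified by real-time PCR against plasmid standards. EC50 values came from non-linear regression of relative copy numbers, typically from three experiments in triplicate.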

Sequence of HBV core protein (P03146 whole entry, looked up): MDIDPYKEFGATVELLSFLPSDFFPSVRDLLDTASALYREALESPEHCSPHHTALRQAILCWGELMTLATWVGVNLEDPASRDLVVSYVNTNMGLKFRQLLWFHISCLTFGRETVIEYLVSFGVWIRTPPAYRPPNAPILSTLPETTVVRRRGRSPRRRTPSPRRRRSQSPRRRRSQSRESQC

By IC50 is commonly meant the concentration that inhibits the measured activity by half. Usually EC50 stands for the concentration giving half of the maximal effect. Consider `Nc1nc2c(s1)CN(C(=O)c1cc3c(F)c(F)c(F)cc3[nH]1)CC2` [Example 78, 5-(4,5,6-trifluoro-1H-indole-2-carbonyl)-4H,5H,6H,7H-[1,3]thiazolo[5,4-c]pyridin-2-amine], for which, in assay [1], the half-maximal inhibitory concentration (IC50) was under 5 µM. The EC50 in assay [2] was under 1 µM.

Regarding `O=C(c1cc2ccccc2[nH]1)N1CCc2nc(N[C@@H]3CCCC[C@H]3O)sc2C1` [Example 269, (1R,2R)-2-{[5-(1H-indole-2-carbonyl)-4H,5H,6H,7H-[1,3]thiazolo[5,4-c]pyridin-2-yl]amino}cyclohexan-1-ol], in assay [1], the IC50 is under 5 µM. The EC50 in assay [2] was under 1 µM.

As to `Nc1nc2c(s1)CN(C(=O)c1cc3c(Cl)cc(F)cc3[nH]1)CC2` [Example 167, 5-(4-chloro-6-fluoro-1H-indole-2-carbonyl)-4H,5H,6H,7H-[1,3]thiazolo[5,4-c]pyridin-2-amine], the IC50 in assay [1] is under 5 µM. In assay [2], the EC50 is under 1 µM.

In the case of `CN(C)C1(CNc2nc3c(s2)CN(C(=O)c2cc4ccccc4[nH]2)CC3)CCC1` [Example 433, N-{[1-(dimethylamino)cyclobutyl]methyl}-5-(1H-indole-2-carbonyl)-4H,5H,6H,7H-[1,3]thiazolo[5,4-c]pyridin-2-amine], the IC50 in assay [1] was under 5 µM. In addition, in assay [2], the EC50 is under 1 µM.

Consider `O=C(c1cc2ccccc2[nH]1)N1CCc2nc(CNCC3CCOC3)sc2C1` (stereo not shown) [Example 1, {[5-(1H-indole-2-carbonyl)-4H,5H,6H,7H-[1,3]thiazolo[5,4-c]pyridin-2-yl]methyl}[(oxolan-3-yl)methyl]amine], for which the IC50 in assay [1] is under 100 µM. For the same molecule, the EC50 in assay [2] lay within 1 to 10 µM.

With `CC1(Nc2nc3c(s2)CN(C(=O)c2cc4ccccc4[nH]2)CC3)CCOCC1` [Example 69, 5-(1H-indole-2-carbonyl)-N-(4-methyloxan-4-yl)-4H,5H,6H,7H-[1,3]thiazolo[5,4-c]pyridin-2-amine], the IC50 in assay [1] was under 5 µM. Further, the EC50 in assay [2] was under 1 µM.

For the molecule `COCC1(C(=O)Nc2nc3c(s2)CN(C(=O)c2cc4ccccc4[nH]2)CC3)CC1` [Example 330, N-[5-(1H-indole-2-carbonyl)-4H,5H,6H,7H-[1,3]thiazolo[5,4-c]pyridin-2-yl]-1-(methoxymethyl)cyclopropane-1-carboxamide], the IC50 in assay [1] lay within 5 to 10 µM. Besides, in assay [2], the EC50 is under 1 µM.

As to `O=C(c1cc2c(F)ccc(F)c2[nH]1)N1CCc2nc(NC3CCOC3)sc2C1` (stereo not shown) [Example 132, 5-(4,7-difluoro-1H-indole-2-carbonyl)-N-(oxolan-3-yl)-4H,5H,6H,7H-[1,3]thiazolo[5,4-c]pyridin-2-amine], in assay [1], the IC50 is under 5 µM. Further, the EC50 in assay [2] is under 1 µM.

As for `O=C(c1cc2ccccc2[nH]1)N1CCc2nc(NC3CCC3)sc2C1` [Example 429, N-cyclobutyl-5-(1H-indole-2-carbonyl)-4H,5H,6H,7H-[1,3]thiazolo[5,4-c]pyridin-2-amine], the IC50 in assay [1] is under 5 µM. Besides, the EC50 in assay [2] is under 1 µM.

For the molecule `O=C(c1cc2c(Cl)cc(F)cc2[nH]1)N1CCc2nc(NCC3CCOC3)sc2C1` (stereo not shown) [Example 101, 5-(4-chloro-6-fluoro-1H-indole-2-carbonyl)-N-[(oxolan-3-yl)methyl]-4H,5H,6H,7H-[1,3]thiazolo[5,4-c]pyridin-2-amine], the IC50 in assay [1] is under 5 µM. Moreover, in assay [2], the half-maximal effective concentration (EC50) was under 1 µM.

On to `CS(=O)(=O)CCNc1nc2c(s1)CN(C(=O)c1cc3ccccc3[nH]1)CC2` [Example 89, 5-(1H-indole-2-carbonyl)-N-(2-methanesulfonylethyl)-4H,5H,6H,7H-[1,3]thiazolo[5,4-c]pyridin-2-amine], for which the IC50 in assay [1] is under 5 µM. Moreover, the EC50 in assay [2] was under 1 µM.

For the molecule `O=C(c1cc2ccccc2[nH]1)N1CCc2nc(NCC3(c4ccccn4)CCC3)sc2C1` [Example 432, 5-(1H-indole-2-carbonyl)-N-{[1-(pyridin-2-yl)cyclobutyl]methyl}-4H,5H,6H,7H-[1,3]thiazolo[5,4-c]pyridin-2-amine], in assay [1], the IC50 is under 5 µM. Further, in assay [2], the EC50 is under 1 µM.

As for `CC(O)c1cc(F)cc2[nH]c(C(=O)N3CCc4nc(NCC5CCOC5)sc4C3)cc12` (stereo not shown) [Example 258, 1-[6-fluoro-2-(2-{[(oxolan-3-yl)methyl]amino}-4H,5H,6H,7H-[1,3]thiazolo[5,4-c]pyridine-5-carbonyl)-1H-indol-4-yl]ethan-1-ol], the IC50 in assay [1] was under 100 µM. Moreover, in assay [2], the EC50 lay within 1 to 10 µM.

Consider `O=C(c1cc2ccccc2[nH]1)N1CCc2nc(NCC(CO)CC3CCOCC3)sc2C1` (stereo not shown) [Example 226, 3-{[5-(1H-indole-2-carbonyl)-4H,5H,6H,7H-[1,3]thiazolo[5,4-c]pyridin-2-yl]amino}-2-[(oxan-4-yl)methyl]propan-1-ol], for which the IC50 in assay [1] was under 5 µM. Besides, in assay [2], the EC50 is under 1 µM.

Consider `Cc1nc2c(s1)CN(C(=O)c1cc3cc(F)cc(F)c3[nH]1)CC2` [Example 163], for which the IC50 in assay [1] was under 5 µM. In addition, in assay [2], the EC50 is under 1 µM.

Regarding `N#Cc1ccc2cc(C(=O)N3CCc4nc(N)sc4C3)[nH]c2c1` [Example 17, 2-{2-amino-4H,5H,6H,7H-[1,3]thiazolo[5,4-c]pyridine-5-carbonyl}-1H-indole-6-carbonitrile], the IC50 in assay [1] is under 100 µM. For the same molecule, the EC50 in assay [2] fell in the range of 1 to 10 µM.

In the case of `O=C(c1cc2c(Cl)cccc2[nH]1)N1CCc2nc(NCC3(O)CCC3)sc2C1` [Example 311, 1-({[5-(4-chloro-1H-indole-2-carbonyl)-4H,5H,6H,7H-[1,3]thiazolo[5,4-c]pyridin-2-yl]amino}methyl)cyclobutan-1-ol], the IC50 in assay [1] was under 5 µM. Further, the EC50 in assay [2] is under 1 µM.

Take `O=C(c1cc2ccccc2[nH]1)N1CCc2nc(NCCn3cccn3)sc2C1` [Example 285, 5-(1H-indole-2-carbonyl)-N-[2-(1H-pyrazol-1-yl)ethyl]-4H,5H,6H,7H-[1,3]thiazolo[5,4-c]pyridin-2-amine]: the IC50 in assay [1] was under 5 µM. In assay [2], the EC50 was under 1 µM.

Take `Cc1nc2c(s1)CN(C(=O)c1cc3c(Cl)c(Cl)ccc3[nH]1)CC2` [Example 185, 4,5-dichloro-2-{2-methyl-4H,5H,6H,7H-[1,3]thiazolo[5,4-c]pyridine-5-carbonyl}-1H-indole]: in assay [1], the IC50 is under 100 µM. Also, the EC50 in assay [2] was under 100 µM.

For the molecule `Nc1nc2c(s1)CN(C(=O)c1cc3cccc(OC(F)(F)F)c3[nH]1)CC2` [Example 174, 5-(7-(trifluoromethoxy)-1H-indole-2-carbonyl)-4H,5H,6H,7H-[1,3]thiazolo[5,4-c]pyridin-2-amine], in assay [1], the IC50 is under 5 µM. In assay [2], the EC50 fell in the range of 1 to 10 µM.

With `O=C(c1cc2cc(F)c(Cl)cc2[nH]1)N1CCc2nc(NCC3(CO)CC3)sc2C1` [Example 234, [1-({[5-(6-chloro-5-fluoro-1H-indole-2-carbonyl)-4H,5H,6H,7H-[1,3]thiazolo[5,4-c]pyridin-2-yl]amino}methyl)cyclopropyl]methanol], the IC50 in assay [1] was under 5 µM. The EC50 in assay [2] was under 1 µM.

For `Cc1nc2c(s1)CN(C(=O)c1cc3c(F)ccc(F)c3[nH]1)CC2` [Example 191, 4,7-difluoro-2-{2-methyl-4H,5H,6H,7H-[1,3]thiazolo[5,4-c]pyridine-5-carbonyl}-1H-indole], the IC50 in assay [1] lay within 5 to 10 µM. The EC50 in assay [2] is under 1 µM.

Take `NCc1nc2c(s1)CN(C(=O)c1cc3ccccc3[nH]1)CC2` [Example 18, [5-(1H-indole-2-carbonyl)-4H,5H,6H,7H-[1,3]thiazolo[5,4-c]pyridin-2-yl]methanamine]: in assay [1], the IC50 was under 100 µM. The EC50 in assay [2] fell in the range of 1 to 10 µM.

On to `Cc1cc(F)cc2[nH]c(C(=O)N3CCc4nc(NC5(CO)CCC5)sc4C3)cc12` [Example 298, (1-{[5-(6-fluoro-4-methyl-1H-indole-2-carbonyl)-4H,5H,6H,7H-[1,3]thiazolo[5,4-c]pyridin-2-yl]amino}cyclobutyl)methanol], for which the IC50 in assay [1] was under 5 µM. Besides, the EC50 in assay [2] was under 1 µM.

Consider `CCc1cc(F)cc2[nH]c(C(=O)N3CCc4nc(NCC5CCOC5)sc4C3)cc12` (stereo not shown) [Example 255, 5-(4-ethyl-6-fluoro-1H-indole-2-carbonyl)-N-[(oxolan-3-yl)methyl]-4H,5H,6H,7H-[1,3]thiazolo[5,4-c]pyridin-2-amine], for which, in assay [1], the IC50 is under 5 µM. Further, the EC50 in assay [2] is under 1 µM.

In the case of `Nc1nc2c(s1)CN(C(=O)c1cc3c(Br)ccc(F)c3[nH]1)CC2` [Example 90, 5-(4-bromo-7-fluoro-1H-indole-2-carbonyl)-4H,5H,6H,7H-[1,3]thiazolo[5,4-c]pyridin-2-amine], the 50% inhibitory concentration (IC50) in assay [1] is under 5 µM. In assay [2], the concentration giving a half-maximal response (EC50) is under 1 µM.

Regarding `Cc1cc(F)cc2[nH]c(C(=O)N3CCc4nc(N[C@H]5CC[C@@H](O)CC5)sc4C3)cc12` [Example 303, (1s,4s)-4-{[5-(6-fluoro-4-methyl-1H-indole-2-carbonyl)-4H,5H,6H,7H-[1,3]thiazolo[5,4-c]pyridin-2-yl]amino}cyclohexan-1-ol], the IC50 in assay [1] was under 5 µM. For the same molecule, the concentration giving a half-maximal response (EC50) in assay [2] is under 1 µM.

For the molecule `O=C(c1cc2ccccc2[nH]1)N1CCc2nc(NCCCO)sc2C1` [Example 129, 3-{[5-(1H-indole-2-carbonyl)-4H,5H,6H,7H-[1,3]thiazolo[5,4-c]pyridin-2-yl]amino}propan-1-ol], the IC50 in assay [1] is under 5 µM. The EC50 in assay [2] is under 1 µM.

Take `CC(O)c1cccc2[nH]c(C(=O)N3CCc4nc(N)sc4C3)cc12` (stereo not shown) [Example 10, 1-(2-{2-amino-4H,5H,6H,7H-[1,3]thiazolo[5,4-c]pyridine-5-carbonyl}-1H-indol-4-yl)ethan-1-ol]: in assay [1], the IC50 is under 100 µM. Moreover, the EC50 in assay [2] lay within 1 to 10 µM.

These data come from patent US11267825B2 (AICURIS GMBH & CO. KG, priority 2017, dated 2022).
